These results are taken from US5627203A, “Tricyclic oxime ethers” (Adir et Compagnie, priority 1994, dated 1997).

SMILES strings stand for the structures. Bounds are passed on as bounds.

For orientation: IC50 means the concentration that gives 50% inhibition.

For experiment [1], the target named is T1, 5-HT1B receptors (Rattus norvegicus, UniProt P28564).
T1 construct: rat cortex, striatum, and globus pallidus homogenates; from tissue; host or cells: rat cortex, striatum and globus pallidus
In words: Displacement of 5-hydroxytryptamine at 5-HT1B receptors. Type of experiment: binding. The settings on record: rat cortex, striatum, and globus pallidus homogenates. On the procedure: (§1) A-2: Study of the binding of the compounds of the invention to the serotonin reuptake site as well as to 5-HT1, 5-HT1A, 5-HT1B, 5-HT1D, 5-HT2, 5-HT2C, 5-HT4 serotoninergic receptors.
(§2) The binding of the compounds of the invention is measured in accordance with conventional methods.
for 5-HT1B receptors, by the displacement of 5-hydroxytryptamine in rat cortex, striatum, and globus pallidus homogenates, […]

Experiment [2] has as its target 5-HT1D receptors. Description: Displacement of 5-OH-tryptamine at 5-HT1D receptors. The class given is binding. The conditions noted are these: rat cortex, striatum and globus pallidus homogenates. Here is the method: as §1, §2
for 5-HT1D receptors, by the displacement of 5-OH-tryptamine in rat cortex, striatum and globus pallidus homogenates, […]

Experiment [3] concerns the target T2, 5-HT3 receptors (Rattus norvegicus, UniProt P35563).
T2 construct: rat area postrema homogenates; from tissue; host or cells: rat area postrema
T2 sequence (P35563 24-483): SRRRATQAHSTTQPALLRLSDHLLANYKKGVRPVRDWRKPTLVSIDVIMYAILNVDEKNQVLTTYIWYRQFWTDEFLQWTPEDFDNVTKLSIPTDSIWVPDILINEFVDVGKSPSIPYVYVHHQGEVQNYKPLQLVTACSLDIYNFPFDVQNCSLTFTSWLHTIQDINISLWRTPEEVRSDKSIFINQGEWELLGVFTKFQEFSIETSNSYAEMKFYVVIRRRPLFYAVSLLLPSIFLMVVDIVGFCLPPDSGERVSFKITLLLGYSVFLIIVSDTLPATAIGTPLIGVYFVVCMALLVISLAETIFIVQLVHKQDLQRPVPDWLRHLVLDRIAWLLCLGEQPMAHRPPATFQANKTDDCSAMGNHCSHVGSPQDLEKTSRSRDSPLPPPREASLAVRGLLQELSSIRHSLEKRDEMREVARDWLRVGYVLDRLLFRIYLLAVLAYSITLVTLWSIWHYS
Description: Displacement of 3H-zacopride at 5-HT3 receptors. The class given is binding. The conditions noted are these: 0.3-0.4 nM 3H-zacopride, rat area postrema homogenates, pH 7.4, 25° C., 30 minutes. Here is the method: A-1: Study of the binding of the compounds of the invention to 5-HT3 serotoninergic receptors
The binding of the compounds of the invention to 5-HT3 receptors was determined for each compound by measuring the displacement of ^3 H-zacopride (specific ligand for 5-HT3 receptors) in rat area postrema homogenates.
Aliquot amounts (50-100 μl) of a membrane suspension (2.5-5.0 mg of protein/cm^3) are incubated for 30 minutes at 25° C. in a Tris-HCl buffer, 25 mM, pH 7,4, in the presence of 0.3-0.4 nM 3^H -zacopride (83 ci/mmol) (total volume: 0.5 cm^3). The incubation is terminated by filtering the samples through Whatman GF/B filters which are then washed and dried. The radioactivity retained on the filters is finally calculated by spectrometry in liquid medium (Aquasol). The non-specific binding is evaluated under the same conditions using samples containing in addition 1 μM of ondansetron (5-HT3 antagonist). The displacement curves obtained by adding increasing concentrations of a test compound to the incubation medium are analysed to determine the affinity of the test compounds for 5-HT3 receptors.

Experiment [4] deals with T3, serotonin reuptake site (Rattus norvegicus, UniProt P31652).
T3 construct: rat brain from which the cerebellum has been removed; from tissue; host or cells: rat brain without cerebellum
T3 sequence (P31652 whole entry): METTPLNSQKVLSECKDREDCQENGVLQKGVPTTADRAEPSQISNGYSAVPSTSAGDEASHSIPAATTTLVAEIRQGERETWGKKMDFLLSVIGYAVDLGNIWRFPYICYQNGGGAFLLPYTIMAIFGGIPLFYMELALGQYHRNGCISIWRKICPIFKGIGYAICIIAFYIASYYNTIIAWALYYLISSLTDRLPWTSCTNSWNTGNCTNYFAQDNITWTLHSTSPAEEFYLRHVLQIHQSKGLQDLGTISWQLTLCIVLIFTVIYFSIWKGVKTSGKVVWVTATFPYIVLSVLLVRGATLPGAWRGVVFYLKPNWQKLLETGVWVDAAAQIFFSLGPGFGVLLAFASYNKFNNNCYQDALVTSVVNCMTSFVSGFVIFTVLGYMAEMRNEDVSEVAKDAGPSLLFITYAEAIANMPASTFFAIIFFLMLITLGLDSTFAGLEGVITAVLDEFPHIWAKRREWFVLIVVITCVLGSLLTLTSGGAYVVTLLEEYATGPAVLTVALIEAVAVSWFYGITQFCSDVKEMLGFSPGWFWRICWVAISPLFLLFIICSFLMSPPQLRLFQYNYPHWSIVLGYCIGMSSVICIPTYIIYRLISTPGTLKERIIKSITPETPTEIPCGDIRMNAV
Description: Displacement of 3H-paroxetine at the serotonin reuptake site. Type of experiment: binding. The settings on record: rat brain without cerebellum, read-out: IC50, serotonin reuptake sites. On the procedure: as §1, §2
for the serotonin reuptake site, by the displacement of ^3 H-paroxetinein rat brain from which the cerebellum has been removed, […]

In experiment [5] the target is T4, 5-HT2C receptors (Rattus norvegicus, UniProt P08909).
T4 construct: rat frontal cortex and hippocampus homogenates; from tissue; host or cells: rat frontal cortex and hippocampus
T4 sequence (P08909 33-460): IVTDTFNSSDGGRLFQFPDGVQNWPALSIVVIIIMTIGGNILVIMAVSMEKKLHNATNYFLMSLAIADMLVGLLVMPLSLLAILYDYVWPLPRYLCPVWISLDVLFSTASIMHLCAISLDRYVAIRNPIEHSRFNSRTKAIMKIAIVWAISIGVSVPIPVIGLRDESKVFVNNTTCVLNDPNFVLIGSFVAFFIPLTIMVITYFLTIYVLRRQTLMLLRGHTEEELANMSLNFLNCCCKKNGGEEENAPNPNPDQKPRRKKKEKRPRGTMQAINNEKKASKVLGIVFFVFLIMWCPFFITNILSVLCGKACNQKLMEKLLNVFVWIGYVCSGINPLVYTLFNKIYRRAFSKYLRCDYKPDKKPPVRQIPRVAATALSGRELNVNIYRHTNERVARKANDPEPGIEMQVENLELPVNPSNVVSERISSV
In words: Displacement of N-methylmesulergine at 5-HT2C receptors. Type of experiment: binding. The settings on record: rat frontal cortex and hippocampus homogenates. On the procedure: as §1, §2
for 5-HT2C receptors, by the displacement of N-methylmesulergine in rat frontal cortex and hippocampus homogenates, […]

For experiment [6], the target named is T5, 5-HT2 receptors (Rattus norvegicus, UniProt P14842).
T5 construct: rat frontal cortex homogenates; from tissue; host or cells: rat frontal cortex
T5 sequence (P14842 whole entry): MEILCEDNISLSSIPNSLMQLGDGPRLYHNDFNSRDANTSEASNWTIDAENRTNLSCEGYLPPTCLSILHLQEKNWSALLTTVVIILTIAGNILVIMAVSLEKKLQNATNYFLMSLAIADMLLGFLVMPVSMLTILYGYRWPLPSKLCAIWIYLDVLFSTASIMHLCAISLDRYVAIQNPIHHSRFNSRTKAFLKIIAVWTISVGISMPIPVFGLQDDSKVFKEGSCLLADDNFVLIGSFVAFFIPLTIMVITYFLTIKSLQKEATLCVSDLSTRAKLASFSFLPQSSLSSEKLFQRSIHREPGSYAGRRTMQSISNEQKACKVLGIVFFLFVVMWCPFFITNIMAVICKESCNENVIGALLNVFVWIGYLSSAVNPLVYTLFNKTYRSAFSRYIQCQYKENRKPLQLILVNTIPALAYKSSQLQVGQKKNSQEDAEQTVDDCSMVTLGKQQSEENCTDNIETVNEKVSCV
Description: Displacement of aminoiodoketaneserine at 5-HT2 receptors. The class given is binding. The settings on record: rat frontal cortex homogenates. Here is the method: as §1, §2
for 5-HT2 receptors, by the displacement of aminoiodoketaneserine in rat frontal cortex homogenates, […]

In experiment [7] the target is T6, 5-HT1A receptors (Rattus norvegicus, UniProt P19327).
T6 construct: rat hippocampus homogenates; from tissue; host or cells: rat hippocampus
T6 sequence (P19327 1-422): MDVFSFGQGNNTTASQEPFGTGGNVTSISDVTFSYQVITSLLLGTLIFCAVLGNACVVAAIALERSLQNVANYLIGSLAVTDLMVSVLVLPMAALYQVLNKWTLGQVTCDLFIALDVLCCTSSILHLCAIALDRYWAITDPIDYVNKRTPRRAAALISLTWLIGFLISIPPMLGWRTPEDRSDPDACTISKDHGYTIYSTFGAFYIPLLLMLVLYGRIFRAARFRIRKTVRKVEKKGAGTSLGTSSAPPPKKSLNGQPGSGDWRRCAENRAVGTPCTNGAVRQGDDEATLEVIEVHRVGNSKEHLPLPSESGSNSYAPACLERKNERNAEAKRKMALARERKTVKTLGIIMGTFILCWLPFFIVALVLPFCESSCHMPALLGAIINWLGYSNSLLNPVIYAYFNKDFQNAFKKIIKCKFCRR
Description: Displacement of 8-OH-DPAT at 5-HT1A receptors. The class given is binding. The settings on record: rat hippocampus homogenates. On the procedure: as §1, §2
for 5-HT1A receptors, by the displacement of 8-OH-DPAT in rat hippocampus homogenates, […]

Experiment [8] deals with mouse. In words: Antidepressant activity: forced swimming test on the mouse. The class given is in vivo. The settings on record: i.p. route, last 4 of 6 minutes. On the procedure: The antidepressant effects of the compounds of the invention were studied in accordance with the forced swimming test on the mouse. (Behavioural despair in mice: a primary screening test for antidepressants, Porsolt R. D. et al, Arch. Int. Pharmacodyn., (1977), 229, pp. 327-336).
The animals are placed for 6 minutes in a cylinder containing water from which they cannot escape. The period of immobility of the animals is measured for the last 4 minutes of the test. The test compounds are administered in a single dose before the test (imipramine being used as the reference compound).

In experiment [9] the target is 5-HT1 receptors. Description: Displacement of 5-OH tryptamine at 5-HT1 receptors. Type of experiment: binding. The settings on record: pig frontal cortex and striatum. Here is the method: as §1, §2
for 5-HT1 receptors, by the displacement of 5-OH tryptamine in pig frontal cortex and striatum, […]

The test system of experiment [10] is mouse. Description: Anxiolytic activity: illuminated/darkened cages test on the mouse. Type of experiment: in vivo. The conditions noted are these: 15 mg/kg, i.p. route, 5 minutes. From the text:
The anxiolytic effects of the compounds of the invention were studied in accordance with the illuminated/darkened cages test on the mouse (Crawley et al. (1981), Pharmacol. Biochem. Behav., 15, pp 695-699).
The test uses two cages of equal size (20×20×14 cm) made of PVC. One is strongly illuminated by a 100 W bulb ("cold" light) and the other is darkened. The two cages are separated from one another by a small opaque tunnel (5×7 cm). The mice are introduced individually into the tunnel and, once they have entered the darkened cage for the first time, a recording is made over a period of 5 minutes, by means of pads connected to a computer, of the time spent by the animals in the illuminated cage as well as the number of transfers between the darkened cage and the illuminated cage. Each experimental group comprises a minimum of 15 animals.

T1 sequence (P28564 whole entry): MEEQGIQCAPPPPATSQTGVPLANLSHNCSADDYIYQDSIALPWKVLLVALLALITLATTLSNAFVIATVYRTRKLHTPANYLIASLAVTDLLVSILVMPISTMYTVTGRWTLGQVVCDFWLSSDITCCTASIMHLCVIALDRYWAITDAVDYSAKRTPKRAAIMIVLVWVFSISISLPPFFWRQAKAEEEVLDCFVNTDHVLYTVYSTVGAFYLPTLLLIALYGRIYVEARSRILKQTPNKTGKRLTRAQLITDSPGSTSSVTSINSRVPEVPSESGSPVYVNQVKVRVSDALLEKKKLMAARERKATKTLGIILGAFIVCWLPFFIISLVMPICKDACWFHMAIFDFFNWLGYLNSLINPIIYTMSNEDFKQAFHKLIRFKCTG

For `Cc1csc2c1-n1cccc1/C2=N/OCCN(C)C` [Example 3, (Z)-8-{[2-(N,N-Dimethylamino)ethoxy]imino}-3-methylthieno[2,3-d]pyrrolo-[1,2-a]pyrrole], the 50% inhibitory concentration (IC50) in [1] was 2700 nM; in experiment [2], 480 nM; in experiment [3], 0.11 nM; in [4], 120 nM; in [5], 2100 nM; in experiment [6], 3100 nM. In addition, the IC50 is 5800 nM in [7] and 2200 nM in experiment [9]. The “Period of immobility expressed as a percentage by comparison with the control group” value in experiment [8] (32 mg/kg, **p < 0.01) was -39%; in experiment [8] (64 mg/kg, ***p < 0.001), -86%.

`Cc1csc2c1-n1cccc1/C2=N/OCC(C)N(C)C` (centres unmarked) [Example 22]: the IC50 in experiment [1] amounted to 11000 nM; in [2], 6400 nM; in [3], 1 nM; in experiment [4] it was 110 nM; in [5], 1600 nM; in experiment [6], 11000 nM. Besides, the IC50 turned out to be 9000 nM in experiment [7] and 6900 nM in [9]. For the same compound, the “Number of transfers, percentage compared with the control group” value in experiment [10] was “+76%”. Also, in experiment [10] (*p < 0.5), the “Time spent in the illuminated cage, percentage compared with the control group” value is recorded as “+92%”.

As to `Cc1csc2c1-n1cccc1C2=NOC(CCN(C)C)c1ccccc1` (centres unmarked) [Example 39, 3-Methyl-8-{[3-(N,N-dimethylamino)-1-phenylprop-1-yloxy]imino}thieno-[2,3-d]pyrrolo[1,2-a]pyrrole], the IC50 in experiment [1] was greater than 100000 nM; in experiment [2] it was 6700 nM; in experiment [3], 200 nM; in [4], 72 nM; in experiment [5], 61 nM; in [6], 2200 nM. Moreover, the IC50 in experiment [7] stood at 11000 nM; in experiment [9] it was 10000 nM. For the same compound, the “Period of immobility expressed as a percentage by comparison with the control group” value in [8] (32 mg/kg, **p < 0.01) is -53%.
